Experimental data as given in patent EP0676203A1, “Pharmaceutical compositions of antiglucocorticoid compounds for treating or preventing symptoms of spontaneous or narcotic-induced withdrawal” (ROUSSEL UCLAF, priority 1994, dated 1995).
Where “and” joins values, the source holds several entries; their conditions need not be identical. Equal entries are not always repeated.

How the values were obtained:
[1] = system: souris dépendantes à la morphine; experiment: Naloxone-precipitated withdrawal syndrome (jumping) in morphine-treated mice, repeated 4-day oral treatment; format: in vivo
Source text: (§1) Les expériences ont été réalisées chez des souris mâles Swiss normales ou surrénalectomisées (Charles River, France) d'un poids corporel compris entre 20 et 25 g. Durant les essais, les animaux ont eu libre accès à la nourriture et à l'eau de boisson. Le nombre d'animaux par groupe est de 10 à 13 souris.
(§2) Les antiglucocorticoïdes : • AG1 (17β-hydroxy 11β-(4-diméthylaminophényl) 17α-(prop-1-ynyl) estra 4,9-dièn-3-one), • AG2 (17β-hydroxy 10β-[(4-méthylphényl) méthyl] 17α-(prop-1-ynyl) estra 4,9-dièn-3-one), • AG3 (γ-lactone de l'acide 17β-hydroxy 11β-(4-diméthylaminophényl) 21-méthylène 3-oxo 19-nor 17α-(pregna 4,9-dièn-21-carboxylique) • AG4 10β-benzyl 17β-hydroxy 17α-(prop-1-ynyl) estra 4,9(11)-dièn-3-one • AG5 11β-[4-(diméthylamino) phényl] 17α-hydroxy 17β-(3-hydroxypropyl) 13α-méthyl gona-4,9-dièn-3-one (onapristone) • AG6 11β-[4-(diméthylamino) phényl] 17β-hydroxy 17α-(3-hydroxy-1-propényl) estra-4,9-dièn-3-one (lilopristone) • AG7 17α-acétoxy 11β-[4-(diméthylamino) phényl] 19-nor pregna 4,9-dièn-3,20-dione • et l'antiprogestérone AP1 (17R 11β-[4-(méthylthio) phényl] spiro (estra-4,9-dièn-17,2'(5'H) furan) 3-one décrit dans WO 87/05908 ex. 3) ont été mis en suspension dans de la méthyl cellusose à 0,5 % et administrés par voie orale (p.o). La morphine a été mise en solution dans du sérum physiologique et administrée par voie sous-cutanée (s.c). Enfin, le chlorhydrate de naloxone a été solubilisé dans de l'eau distillée et injecté par voie intra-péritonéale.
Tous les produits ont été administrées à l'animal sous un volume de 25 ml/kg.
Le premier jour (J1), les animaux ont reçu 5 injections sous-cutanées avec des doses croissantes de morphine réparties dans la matinée et sur le début de l'après midi, à une heure d'intervalle. Les 3 jours suivants (J2, J3, J4), ces mêmes animaux ont été traités le matin par deux administrations de la dose maximale utilisée au jour 1.
Les antiglucocorticoïdes AG1, AG2, AG3, AG4 et AG5 ont été administrées à la dose de 100 mg/kg par voie orale sous forme d'un traitement quotidient effectué 2 heures avant l'administration de morphine et ceci durant 4 jours.
La technique utilisée s'inspire de celle décrite par Way et al. J. Pharmacol. Exp. Ther. (1969), 167 : 1-8 et Huidobro et Maggiolo Acta Physiol. Pharmacol. Latinoam. (1961), 11 : 201-9. Ainsi, l'administration réitérée d'un morphinique induit un phénomène de dépendance physique qui peut être facilement mis en évidence par la précipitation d'un syndrome de sevrage à l'aide d'un antagoniste opiacé tel que la naloxone. Ce syndrome se manifeste, chez la souris sous la forme d'un comportement stéréotypé caractérisé par l'apparition de sauts répétitifs dont le nombre est en relation avec la durée et l'intensité du traitement par le morphinique.
Le sevrage des animaux a été réalisé le quatrième jour; trois heures après le dernier traitement, à l'aide de chlorhydrate de naloxone injecté par voie intrapéritonéale à la dose de 100 mg/kg. Immédiatement après cette injection, les animaux ont été placés individuellement dans des cylindres en plexiglass (hauteur = 40 cm, diamètre = 20 cm). Le nombre de sauts consécutifs au sevrage et effectués par chaque animal a été compté durant une période de 10 minutes.
Les résultats qui figurent dans les tableaux représentent les moyennes des valeurs individuelles assorties de l'erreur standard à la moyenne (m ± esm).

[2] = system: souris dépendantes à la morphine; experiment: Naloxone-precipitated withdrawal syndrome (jumping) in morphine-treated mice, acute oral treatment 24 h before withdrawal; format: in vivo; details: result in words; 100 mg/kg p.o single dose 24 h before naloxone
Source text: as §1
as §2, with “Enfin, le chlorhydrate de naloxone a été solubilisé dans de l'eau distillée et injecté par voie intra-péritonéale.” left out

[3] = Morphine 799 mg/kg s.c (cumulated over 4 days) + compound 4 x 100 mg/kg p.o, naloxone 100 mg/kg ip, normal mice
[4] = compound alone, 4 x 100 mg/kg p.o, no morphine, naloxone 100 mg/kg ip on day 4, normal mice

With CC#C[C@]1(O)CC[C@H]2[C@@H]3CCC4=CC(=O)CCC4=C3[C@@H](c3ccc(N(C)C)cc3)C[C@@]21C [AG1, 17β-hydroxy 11β-(4-diméthylaminophényl) 17α-(prop-1-ynyl) estra 4,9-dièn-3-one] the “Nombre de sauts/10 minutes (m ± esm)” value [1, 3] was 68 ± 12 sauts/10 minutes and the “Nombre de sauts/10 minutes (m ± esm)” value [1, 4] was 0 sauts/10 minutes.

With CC#CC1(O)CCC2C3CCC4=CC(=O)CCC4(Cc4ccc(C)cc4)C3=CCC21C (stereo not drawn) [AG2, 17β-hydroxy 10β-[(4-méthylphényl)méthyl] 17α-(prop-1-ynyl) estra 4,9-dièn-3-one] the “effet sur le syndrome de sevrage morphinique” value [2] was “inactive”, the “Nombre de sauts/10 minutes (m ± esm)” value [1, 3] was 79 ± 9 sauts/10 minutes and the “Nombre de sauts/10 minutes (m ± esm)” value [1, 4] was 0 sauts/10 minutes.

With C=C1C[C@@]2(CC[C@H]3[C@@H]4CCC5=CC(=O)CCC5=C4[C@@H](c4ccc(N(C)C)cc4)C[C@@]32C)OC1=O [AG3] the “Nombre de sauts/10 minutes (m ± esm)” value [1, 3] was 66 ± 7 sauts/10 minutes and the “Nombre de sauts/10 minutes (m ± esm)” value [1, 4] was 3 ± 2 sauts/10 minutes.

In the case of CC#CC1(O)CCC2C3CCC4=CC(=O)CCC4(Cc4ccccc4)C3=CCC21C (stereo not drawn) [AG4, 10β-benzyl 17β-hydroxy 17α-(prop-1-ynyl) estra 4,9(11)-dièn-3-one], the “Nombre de sauts/10 minutes (m ± esm)” value [1, 3] is reported as 72 ± 7 sauts/10 minutes and the “Nombre de sauts/10 minutes (m ± esm)” value [1, 4] is reported as 1 ± 1 sauts/10 minutes.

With CN(C)c1ccc([C@H]2C[C@]3(C)[C@@H](CC[C@]3(O)CCCO)[C@@H]3CCC4=CC(=O)CCC4=C32)cc1 [AG5, 11β-[4-(diméthylamino)phényl] 17α-hydroxy 17β-(3-hydroxypropyl) 13α-méthyl gona-4,9-dièn-3-one] the “Nombre de sauts/10 minutes (m ± esm)” value [1, 3] was 68 ± 12 sauts/10 minutes and the “Nombre de sauts/10 minutes (m ± esm)” value [1, 4] was 1 ± 1 sauts/10 minutes.

For CSc1ccc([C@H]2C[C@@]3(C)[C@@H](CC[C@@]34C=CCO4)[C@@H]3CCC4=CC(=O)CCC4=C32)cc1 [AP1, 17R 11β-[4-(méthylthio)phényl] spiro (estra-4,9-dièn-17,2'(5'H)furan) 3-one, reference compound], the “effet sur le syndrome de sevrage morphinique” value [2] was “n'a pas modifié de façon significative”.

For CN1CC[C@]23c4c5ccc(O)c4O[C@H]2[C@@H](O)C=C[C@H]3[C@H]1C5 [Morphine, morphine, reference compound], the “Nombre de sauts/10 minutes (m ± esm)” value ([1]; in vivo) was 115 ± 21 sauts/10 minutes and 97 ± 13 sauts/10 minutes and 117 ± 14 sauts/10 minutes and 103 ± 10 sauts/10 minutes.
